Measurements from patent US10562898B2, “Substituted benzenesulfonamides as inhibitors of alpha-4 beta-7 integrin activity” (EA PHARMA CO., LTD., priority 2016, dated 2020).

Target: T1, T cell α4β7 integrin (Homo sapiens, UniProt P13612+P26010)
T1 construct: Blood samples were obtained from healthy volunteers' blood donation; endogenous in cells; host or cells: CD4-positive T cells in whole blood of healthy human volunteers
T1 sequence (P13612 34-1032): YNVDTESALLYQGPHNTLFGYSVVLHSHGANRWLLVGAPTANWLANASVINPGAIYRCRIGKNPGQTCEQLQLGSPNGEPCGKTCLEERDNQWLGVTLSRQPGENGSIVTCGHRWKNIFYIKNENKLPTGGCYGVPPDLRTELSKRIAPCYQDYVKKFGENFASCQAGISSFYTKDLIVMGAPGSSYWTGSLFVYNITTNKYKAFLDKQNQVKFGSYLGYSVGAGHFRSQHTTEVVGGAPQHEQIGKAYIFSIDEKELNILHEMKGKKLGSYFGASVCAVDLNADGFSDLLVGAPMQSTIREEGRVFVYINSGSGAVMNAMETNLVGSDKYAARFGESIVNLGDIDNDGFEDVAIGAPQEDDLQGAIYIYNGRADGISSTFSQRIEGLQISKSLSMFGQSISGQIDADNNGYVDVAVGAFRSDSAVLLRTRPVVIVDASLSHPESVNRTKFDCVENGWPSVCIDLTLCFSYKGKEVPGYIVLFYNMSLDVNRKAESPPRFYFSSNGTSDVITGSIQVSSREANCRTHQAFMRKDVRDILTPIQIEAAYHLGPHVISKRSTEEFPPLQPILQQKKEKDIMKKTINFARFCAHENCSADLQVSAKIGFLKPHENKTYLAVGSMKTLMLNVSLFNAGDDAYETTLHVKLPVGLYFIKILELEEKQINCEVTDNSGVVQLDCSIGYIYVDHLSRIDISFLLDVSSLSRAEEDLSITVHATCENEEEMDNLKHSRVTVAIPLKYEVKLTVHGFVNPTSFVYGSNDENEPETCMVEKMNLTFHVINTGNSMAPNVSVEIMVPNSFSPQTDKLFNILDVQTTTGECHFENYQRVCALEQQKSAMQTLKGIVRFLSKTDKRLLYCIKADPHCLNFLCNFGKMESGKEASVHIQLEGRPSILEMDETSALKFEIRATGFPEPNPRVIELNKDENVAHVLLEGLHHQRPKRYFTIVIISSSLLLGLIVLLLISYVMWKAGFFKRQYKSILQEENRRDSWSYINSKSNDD
T1 sequence (P26010 20-798): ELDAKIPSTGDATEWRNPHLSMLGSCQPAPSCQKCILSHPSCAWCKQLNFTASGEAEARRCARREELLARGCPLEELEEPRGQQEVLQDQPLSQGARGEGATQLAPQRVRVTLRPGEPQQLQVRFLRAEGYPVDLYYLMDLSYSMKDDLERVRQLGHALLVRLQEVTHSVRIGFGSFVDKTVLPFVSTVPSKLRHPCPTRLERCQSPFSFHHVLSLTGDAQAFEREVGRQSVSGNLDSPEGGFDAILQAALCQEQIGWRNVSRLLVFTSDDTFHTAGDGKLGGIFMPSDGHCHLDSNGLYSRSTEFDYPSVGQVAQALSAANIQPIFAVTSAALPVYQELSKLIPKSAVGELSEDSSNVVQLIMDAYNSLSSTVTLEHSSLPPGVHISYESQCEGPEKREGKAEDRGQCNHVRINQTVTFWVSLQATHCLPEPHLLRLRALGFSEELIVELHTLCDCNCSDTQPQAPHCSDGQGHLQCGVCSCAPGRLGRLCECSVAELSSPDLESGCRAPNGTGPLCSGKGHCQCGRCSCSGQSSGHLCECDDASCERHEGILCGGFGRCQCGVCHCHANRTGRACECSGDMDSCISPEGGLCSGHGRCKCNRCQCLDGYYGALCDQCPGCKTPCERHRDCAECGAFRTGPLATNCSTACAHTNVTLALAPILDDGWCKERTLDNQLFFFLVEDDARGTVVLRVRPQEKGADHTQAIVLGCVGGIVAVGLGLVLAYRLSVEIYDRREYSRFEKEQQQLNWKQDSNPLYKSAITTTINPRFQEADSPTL
Assay: Mouse MAdCAM-1/α4β7 integrin binding inhibitory activity evaluation test in whole human blood
Assay type: cell-based
Details: recombinant mouse MAdCAM-1/Fc, CD4 positive cells, flow cytometry
Protocol: (4) Mouse MAdCAM-1/α4β7 Integrin Binding Inhibitory Activity Evaluation Test in Whole Human Blood
Each test substance was measured in terms of the binding inhibitory activity of T cell α4β7 integrin and MAdCAM-1 in human whole blood. Blood samples were obtained from healthy volunteers' blood donation.
A 4 mM MnCl2 solution and each of dilutions of various test substances were added to human whole blood, followed by incubation for 10 minutes. Recombinant mouse MAdCAM-1/Fc (R&D Systems, Inc.) at 10 μg/mL was added to the resultant, and each test sample taken in a total amount of 50 μL was incubated for 30 minutes. Then, 950 μL of Lyse/Fix (BD Biosciences) was added to allow hemolysis and fixation to proceed at 37° C. for 10 minutes. After centrifugation for 5 minutes, the supernatant was removed and 600 μL of a RPMI-1640 medium supplemented with 10% inactivated fetal bovine serum (hereinafter referred to as the medium) was added, followed by centrifugation for 5 minutes, removal of the supernatant, and then washing. After the test sample was washed again with the medium, Rat Anti-Mouse MAdCAM-1 antibody (Southern Biotech) at 0.625 μg/mL was added, followed by incubation for 30 minutes or more. After the test sample was washed with the medium, 50 μg/mL Goat Anti-Rat IgG (H+L) Antibody, FITC (Life Technologies) was added, followed by incubation for 30 minutes or more. After the test sample was washed with the medium, 10 μg/mL PE Rat Anti-Mouse CD4 (BD Pharmigen) was added, followed by incubation for 30 minutes or more. After the test sample was washed with the medium, a ratio of MAdCAM-1 positive cells to CD4 positive cells was measured by using flow cytometry.
From independent test results using different blood samples of two to three persons, a MAdCAM-1 binding inhibiting rate of each test substance at each of various concentrations was obtained under the setting in which, among wells containing no test substances, a well containing no ligand was scored at 100% inhibition and a well containing ligand was scored at 0% inhibition, and then a concentration IC50 which brought about 50% binding inhibition was calculated.

SMILES	IC50 [nM]
Cn1c(=O)n(-c2ccc(C[C@H](NC(=O)c3cc(F)c(NS(=O)(=O)c4ccc(NC(=O)C(C)(C)C)cc4)cc3F)C(=O)O)cc2)c(=O)c2ccncc21 [Compound A1, (2S)-2-[[4-[[4-(2,2-dimethylpropanoylamino)phenyl]sulfonylamino]-2,5-difluoro-benzoyl]amino]-3-[4-(1-methyl-2,4-dioxo-pyrido[3,4-d]pyrimidin-3-yl)phenyl]propanoic acid]	3.9
Cc1c(C)n(C)c(=O)n(-c2ccc(C[C@H](NC(=O)c3cc(F)c(NS(=O)(=O)c4ccc(NC(=O)C(C)(C)C)cc4)cc3F)C(=O)O)cc2)c1=O [Compound A8]	1.3
Cn1c(=O)n(-c2ccc(C[C@H](NC(=O)c3cc(F)c(NS(=O)(=O)c4ccc(NC(=O)C(C)(C)C)cc4)cc3F)C(=O)O)cn2)c(=O)c2ccncc21 [Compound A26]	2.4
Cc1c(C)n(C)c(=O)n(-c2ccc(C[C@H](NC(=O)c3cc(F)c(NS(=O)(=O)c4ccc(NC(=O)C(C)(C)C)cc4)cc3F)C(=O)O)cn2)c1=O [Compound A28]	1.2
Cc1c(C)n(C)c(=O)n(-c2ccc(C[C@H](NC(=O)c3cc(F)c(NS(=O)(=O)c4ccc(NC(=O)C(C)(C)C)cn4)cc3F)C(=O)O)cn2)c1=O [Compound A32]	1.9
Cc1cn(C)c(=O)n(-c2ccc(C[C@H](NC(=O)c3cc(F)c(NS(=O)(=O)c4ccc(NC(=O)C(C)(C)C)cc4)cc3F)C(=O)O)cc2)c1=O [Compound A37]	3.3
Cn1c2c(c(=O)n(-c3ccc(C[C@H](NC(=O)c4cc(F)c(NS(=O)(=O)c5ccc(NC(=O)C(C)(C)C)cc5)cc4F)C(=O)O)cn3)c1=O)CCOC2 [Compound A40]	2.3
Cn1ccc(=O)n(-c2ccc(C[C@H](NC(=O)c3cc(F)c(NS(=O)(=O)c4ccc(NC(=O)C(C)(C)C)cc4)cc3F)C(=O)O)cc2)c1=O [Compound A42]	2.2
Cn1c2c(c(=O)n(-c3ccc(C[C@H](NC(=O)c4cc(F)c(NS(=O)(=O)c5ccc(NC(=O)C(C)(C)C)cc5)cc4F)C(=O)O)cn3)c1=O)COCC2 [Compound A44]	1
Cc1cc(=O)n(-c2ccc(C[C@H](NC(=O)c3cc(F)c(NS(=O)(=O)c4ccc(NC(=O)C(C)(C)C)cc4)cc3F)C(=O)O)cn2)c(=O)n1C [Compound A45]	1.3
Cc1cc(=O)n(-c2ccc(C[C@H](NC(=O)c3cc(F)c(NS(=O)(=O)c4ccc(NC(=O)C(C)(C)C)cc4)cc3F)C(=O)O)cc2)c(=O)n1C [Compound A46]	1.6
Cn1ccc(=O)n(-c2ccc(C[C@H](NC(=O)c3cc(F)c(NS(=O)(=O)c4ccc(NC(=O)C(C)(C)C)cc4)cc3F)C(=O)O)cn2)c1=O [Compound A53]	1.8
Cc1cn(C)c(=O)n(-c2ccc(C[C@H](NC(=O)c3cc(F)c(NS(=O)(=O)c4ccc(NC(=O)C(C)(C)C)cc4)cc3F)C(=O)O)cn2)c1=O [Compound A54]	1.3
